Data: article PMC10046946, “Novel Phthalic-Based Anticancer Tyrosine Kinase Inhibitors: Design, Synthesis and Biological Activity” (Current Issues in Molecular Biology, 2023)
Values belong to the compound of their own block, whether it stands above or below them.

Key:
[1] = system: K562 (chronic myelogenous leukemia); assay: MTT cell proliferation assay, K562; type: cell-based; conditions: Homo sapiens, K562, 72 h of exposition, read-out: Anti-proliferative activity IC50, K562
Method: (§1) Tests to determine the effects of the synthesized compounds on cell viability and the half-maximal inhibitory concentration (IC50) were performed using the MTT assay, as described in our prior work.
(§2) The target compounds 5, 6, 8–12, 14, 15, 17–22 and 24–26 were tested for antiproliferative activity against six cancer cell lines: K562 (chronic myelogenous leukemia), HL-60 (promyelocytic leukemia), MCF-7 (breast adenocarcinoma), HepG2 (human liver cancer), A549 (lung carcinoma) and OKP-GS (renal cell carcinoma). The RPMI 1788 cells (B lymphocyte, human) were used as a control to evaluate the system toxicity of the studied compounds to normal cells. Sorafenib, nilotinib and lapatinib were utilized as reference standards for comparison.

[2] = system: HL-60 (promyelocytic leukemia); assay: MTT cell proliferation assay, HL-60; type: cell-based; conditions: Homo sapiens, HL-60, 72 h of exposition, read-out: Anti-proliferative activity IC50, HL-60
Method: as §1, §2

[3] = system: MCF-7 (breast adenocarcinoma); assay: MTT cell proliferation assay, MCF-7; type: cell-based; conditions: Homo sapiens, MCF7, MCF-7, 72 h of exposition, read-out: Anti-proliferative activity IC50, MCF-7
Method: as §1, §2

[4] = system: HepG2 (human liver cancer); assay: MTT cell proliferation assay, HepG2; type: cell-based; conditions: Homo sapiens, HepG2, 72 h, HepG2, 72 h of exposition, read-out: Anti-proliferative activity IC50, HepG2
Method: as §1, §2

A549 (lung carcinoma) = assay: MTT cell proliferation assay, A549; type: cell-based; conditions: Homo sapiens, A549, 72 h of exposition, read-out: Anti-proliferative activity IC50, A549
Method: as §1, §2

[5] = system: OKP-GS (renal cell carcinoma); assay: MTT cell proliferation assay, OKP-GS; type: cell-based; conditions: 72 h of exposition, read-out: Anti-proliferative activity IC50, OKP-GS
Method: as §1, §2

[6] = system: RPMI 1788 cells (B lymphocyte, human); assay: MTT cell proliferation assay, normal RPMI 1788 cells; type: cell-based; conditions: normal human lymphoblastoid cells RPMI 1788, 72 h of exposition, read-out: Anti-proliferative activity IC50, RPMI 1788
Method: as §1, §2

[7] = system: cancer cell lines (K562, HL-60, MCF-7, HepG2, A549, OKP-GS); assay: MTT cell proliferation assay, statements over the whole cell line panel; type: cell-based; conditions: statement over the cell line panel, studied concentration range up to 50 µM
Method: as §1, §2

EGFR = target: T1, EGFR (Homo sapiens, UniProt P00533); assay: ADP-Glo kinase assay, EGFR; type: biochemical
T1 construct: purchased Promega

HER2 = target: T2, HER2 (Homo sapiens, UniProt P04626); assay: ADP-Glo kinase assay, HER2; type: biochemical
T2 construct: purchased Promega
Method: (§3) The ADP-Glo kinase assay (Promega, Madison, WI, USA) was used to screen compounds 5, 8–10, 14, 17, 19 and 24 for the tyrosine kinase (Kinase Selectivity Profiling System TK-1, Promega, Madison, WI, USA) and serine/threonine kinase (Kinase Selectivity Profiling System Other/CK-1, Promega, Madison, WI, USA) inhibition effects according to the manufacturer’s technical manual. The luminescence data were analyzed as described in our prior work.
(§4) The selectivity of the potential kinase inhibitor against a specific protein kinase or a specific family of kinases was investigated using the Kinase Selectivity Profiling System TK-1, Other/CK-1 and ADP-Glo™ Kinase assay kit (Promega, Madison, WI, USA).

HER4 = target: T3, HER4 (Homo sapiens, UniProt Q15303); assay: ADP-Glo kinase assay, HER4; type: biochemical
T3 construct: purchased Promega
Method: as §3, §4

[8] = target: T4, IGF1R (insulin-like growth factor 1 receptor) (Homo sapiens, UniProt P08069); assay: ADP-Glo kinase assay, IGF1R; type: biochemical
T4 construct: purchased Promega
Method: as §3, §4

InsR (insulin receptor) = target: T5, InsR (insulin receptor) (Homo sapiens, UniProt P06213); assay: ADP-Glo kinase assay, InsR; type: biochemical
T5 construct: purchased Promega
Method: as §3, §4

KDR (VEGFR-2) = target: T6, KDR (VEGFR-2) (Homo sapiens, UniProt P35968); assay: ADP-Glo kinase assay, KDR; type: biochemical
T6 construct: purchased Promega

PDGFRα = target: T7, PDGFRα (Homo sapiens, UniProt P16234); assay: ADP-Glo kinase assay, PDGFRα; type: biochemical
T7 construct: purchased Promega
Method: as §3, §4

PDGFRβ = target: T8, PDGFRβ (Homo sapiens, UniProt P09619); assay: ADP-Glo kinase assay, PDGFRβ; type: biochemical
T8 construct: purchased Promega
Method: as §3, §4

Aurora A = target: T9, Aurora A (Homo sapiens, UniProt O14965); assay: ADP-Glo kinase assay, Aurora A; type: biochemical
T9 construct: purchased Promega
T9 sequence (O14965 1-403): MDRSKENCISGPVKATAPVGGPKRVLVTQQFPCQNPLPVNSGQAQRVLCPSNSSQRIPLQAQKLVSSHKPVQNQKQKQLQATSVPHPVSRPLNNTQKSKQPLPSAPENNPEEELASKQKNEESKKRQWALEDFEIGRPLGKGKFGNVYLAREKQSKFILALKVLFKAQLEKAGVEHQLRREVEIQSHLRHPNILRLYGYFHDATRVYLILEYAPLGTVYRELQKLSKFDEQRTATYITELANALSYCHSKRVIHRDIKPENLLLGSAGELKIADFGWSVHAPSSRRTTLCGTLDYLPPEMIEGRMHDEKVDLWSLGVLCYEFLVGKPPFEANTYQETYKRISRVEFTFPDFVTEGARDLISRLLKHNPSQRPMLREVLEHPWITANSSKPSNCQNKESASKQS
Method: as §3, §4

Aurora B = target: T10, Aurora B (Homo sapiens, UniProt Q96GD4); assay: ADP-Glo kinase assay, Aurora B; type: biochemical
T10 construct: purchased Promega
Method: as §3, §4

K562 cells [9] = assay: Cell cycle analysis (propidium iodide, flow cytometry); type: cell-based; conditions: 48 h
Method: Tumor cells were seeded on a 6-well plate at a density of 400,000 per well for K562. Test compounds 5, 14 and 15 were added at concentrations of 1, 5 and 10 μM in duplicate for 48 h. The methodology and analysis of the obtained data were performed as described in our prior work.
As shown above, compounds 5, 14 and 15 had significant antiproliferative activities, which is why their influences on the cell cycle and apoptosis level were determined, with the aim of understanding whether these effects are cytostatic or cytotoxic. In the cell cycle experiments, K562 cells were used. […] For the determination of changes in the distribution of cells in the phases of the cell cycle, the widely employed method of staining the cells with propidium iodide was used.

K562 cells [10] = assay: Annexin V-FITC/PI apoptosis assay; type: cell-based; conditions: 48 h
Method: K562 tumor cells were plated on a 6-well plate at a density of 400,000 per well. Test compounds 5, 14 and 15 were added at concentrations of 1, 5 and 10 μM in duplicate for 48 h. The methodology and analysis of the obtained data were performed as described in our prior work.
The effects of compounds 5, 14 and 15 on cell apoptosis were examined using the Annexin V-FITC Kit (Beckman Coulter, Brea, CA, USA) according to the protocols provided. The Annexin V-FITC Kit is an apoptosis detection kit based on the binding properties of annexin V to phosphatidylserine (PS) and on the DNA intercalating capability of propidium iodide (PI). K562 cells were treated with compound 5, 14 and 15 at 1, 5 and 10 μM for 48 h, after which annexin V/PI binding was measured by flow cytometry.

K562 cell line = assay: ROS determination (DCFH-DA, flow cytometry); type: cell-based; conditions: 48 h
Method: The redox status was assessed using the K562 cell line. […] Then, the cells were washed to remove the 2′,7′-dichlorodihydrofluorescein diacetate by centrifugation at 1000 rpm for 5 min. The measurements were conducted using a Cytomics FC500 Beckman Coulter flow cytometer (FL1 channel for DCF).

T4 sequence (P08069 31-1367): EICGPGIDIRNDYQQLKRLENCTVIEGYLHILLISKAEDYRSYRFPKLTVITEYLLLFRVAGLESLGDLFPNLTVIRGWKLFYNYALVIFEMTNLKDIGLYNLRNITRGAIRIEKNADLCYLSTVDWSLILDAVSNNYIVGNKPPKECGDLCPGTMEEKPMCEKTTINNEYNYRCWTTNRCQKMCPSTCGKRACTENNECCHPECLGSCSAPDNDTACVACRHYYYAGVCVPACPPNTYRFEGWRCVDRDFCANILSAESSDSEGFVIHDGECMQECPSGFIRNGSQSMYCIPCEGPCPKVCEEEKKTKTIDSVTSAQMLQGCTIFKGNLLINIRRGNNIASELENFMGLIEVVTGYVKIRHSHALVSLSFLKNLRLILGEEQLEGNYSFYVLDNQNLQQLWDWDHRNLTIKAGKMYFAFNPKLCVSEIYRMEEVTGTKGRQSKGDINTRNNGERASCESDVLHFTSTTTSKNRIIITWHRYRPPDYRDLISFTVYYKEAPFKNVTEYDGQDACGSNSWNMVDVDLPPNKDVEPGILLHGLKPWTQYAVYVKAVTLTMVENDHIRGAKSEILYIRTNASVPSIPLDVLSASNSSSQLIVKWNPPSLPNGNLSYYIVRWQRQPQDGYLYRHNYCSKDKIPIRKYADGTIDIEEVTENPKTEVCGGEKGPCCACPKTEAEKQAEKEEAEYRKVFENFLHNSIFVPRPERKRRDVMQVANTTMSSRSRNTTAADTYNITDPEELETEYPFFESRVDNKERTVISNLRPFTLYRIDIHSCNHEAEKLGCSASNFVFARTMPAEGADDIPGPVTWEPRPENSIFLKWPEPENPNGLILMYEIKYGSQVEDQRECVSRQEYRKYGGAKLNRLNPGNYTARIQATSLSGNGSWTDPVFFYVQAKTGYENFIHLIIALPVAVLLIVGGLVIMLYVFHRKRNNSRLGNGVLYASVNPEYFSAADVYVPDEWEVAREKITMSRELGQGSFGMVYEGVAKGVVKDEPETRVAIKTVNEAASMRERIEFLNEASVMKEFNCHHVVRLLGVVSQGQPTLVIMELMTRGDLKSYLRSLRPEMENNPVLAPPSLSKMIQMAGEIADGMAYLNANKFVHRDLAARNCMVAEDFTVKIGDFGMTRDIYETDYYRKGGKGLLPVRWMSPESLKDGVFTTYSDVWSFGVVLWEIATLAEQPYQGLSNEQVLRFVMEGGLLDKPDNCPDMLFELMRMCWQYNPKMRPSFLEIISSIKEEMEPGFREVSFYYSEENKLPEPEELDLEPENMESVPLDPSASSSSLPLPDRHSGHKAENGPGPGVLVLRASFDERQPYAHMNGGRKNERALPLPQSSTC
T8 sequence (P09619 33-1106): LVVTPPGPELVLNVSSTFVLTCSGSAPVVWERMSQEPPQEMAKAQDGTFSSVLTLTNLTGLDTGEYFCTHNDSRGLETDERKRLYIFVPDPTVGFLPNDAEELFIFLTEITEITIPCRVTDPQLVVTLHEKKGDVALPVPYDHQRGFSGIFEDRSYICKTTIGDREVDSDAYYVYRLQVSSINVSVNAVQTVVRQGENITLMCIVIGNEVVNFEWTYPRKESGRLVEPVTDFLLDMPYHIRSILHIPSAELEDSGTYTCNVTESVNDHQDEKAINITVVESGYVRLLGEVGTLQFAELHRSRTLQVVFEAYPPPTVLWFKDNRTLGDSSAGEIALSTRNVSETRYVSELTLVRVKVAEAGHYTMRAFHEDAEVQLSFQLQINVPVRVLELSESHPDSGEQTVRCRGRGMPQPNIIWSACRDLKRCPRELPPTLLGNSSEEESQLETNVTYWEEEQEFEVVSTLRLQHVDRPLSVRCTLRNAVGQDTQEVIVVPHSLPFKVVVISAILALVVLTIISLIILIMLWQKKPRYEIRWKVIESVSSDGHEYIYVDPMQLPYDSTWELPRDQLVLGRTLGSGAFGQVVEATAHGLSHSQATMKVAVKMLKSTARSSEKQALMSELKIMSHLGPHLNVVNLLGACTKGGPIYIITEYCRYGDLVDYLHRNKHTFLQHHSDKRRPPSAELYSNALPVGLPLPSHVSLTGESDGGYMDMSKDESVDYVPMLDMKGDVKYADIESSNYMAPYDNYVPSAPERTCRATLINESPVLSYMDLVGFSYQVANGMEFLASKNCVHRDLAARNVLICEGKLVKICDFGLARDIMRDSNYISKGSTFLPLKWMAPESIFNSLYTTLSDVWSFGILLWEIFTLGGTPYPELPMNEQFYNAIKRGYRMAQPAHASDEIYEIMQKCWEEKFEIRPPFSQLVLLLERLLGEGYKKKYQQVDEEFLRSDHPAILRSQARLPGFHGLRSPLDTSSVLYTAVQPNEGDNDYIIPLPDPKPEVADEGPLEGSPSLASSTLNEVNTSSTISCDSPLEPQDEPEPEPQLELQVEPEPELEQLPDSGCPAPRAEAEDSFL
T2 sequence (P04626 23-1255): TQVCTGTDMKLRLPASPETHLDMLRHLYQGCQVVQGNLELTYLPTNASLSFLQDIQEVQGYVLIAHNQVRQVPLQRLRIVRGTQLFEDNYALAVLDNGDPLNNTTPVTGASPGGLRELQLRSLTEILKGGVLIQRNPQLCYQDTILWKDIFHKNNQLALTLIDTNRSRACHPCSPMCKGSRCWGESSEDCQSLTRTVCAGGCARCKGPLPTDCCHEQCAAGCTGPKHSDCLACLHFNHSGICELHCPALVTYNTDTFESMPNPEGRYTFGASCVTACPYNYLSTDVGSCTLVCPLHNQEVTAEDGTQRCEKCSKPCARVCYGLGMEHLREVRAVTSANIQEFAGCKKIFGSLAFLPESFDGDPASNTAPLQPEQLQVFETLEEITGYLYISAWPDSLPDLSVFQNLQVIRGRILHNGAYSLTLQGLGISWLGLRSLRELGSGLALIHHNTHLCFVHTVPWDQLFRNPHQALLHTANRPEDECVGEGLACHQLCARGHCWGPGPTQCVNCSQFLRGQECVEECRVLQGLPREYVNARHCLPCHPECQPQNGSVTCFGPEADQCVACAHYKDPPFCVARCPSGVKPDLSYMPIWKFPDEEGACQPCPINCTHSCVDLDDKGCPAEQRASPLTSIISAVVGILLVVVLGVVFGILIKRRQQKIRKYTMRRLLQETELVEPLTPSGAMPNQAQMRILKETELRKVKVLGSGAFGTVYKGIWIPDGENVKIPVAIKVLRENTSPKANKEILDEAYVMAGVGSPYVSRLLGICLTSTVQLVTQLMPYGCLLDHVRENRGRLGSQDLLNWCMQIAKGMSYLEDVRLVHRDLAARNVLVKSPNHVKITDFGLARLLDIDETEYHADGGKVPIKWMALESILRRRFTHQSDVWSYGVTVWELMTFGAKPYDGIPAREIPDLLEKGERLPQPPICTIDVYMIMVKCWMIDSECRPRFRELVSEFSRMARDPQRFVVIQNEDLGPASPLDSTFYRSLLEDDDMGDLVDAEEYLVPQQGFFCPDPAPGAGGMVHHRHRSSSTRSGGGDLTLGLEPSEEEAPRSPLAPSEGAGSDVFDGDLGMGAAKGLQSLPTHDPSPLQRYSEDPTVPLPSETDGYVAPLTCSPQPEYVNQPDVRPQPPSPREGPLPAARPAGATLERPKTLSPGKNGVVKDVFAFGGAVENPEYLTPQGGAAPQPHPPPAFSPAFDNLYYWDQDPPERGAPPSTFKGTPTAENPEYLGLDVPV
T6 sequence (P35968 20-1356): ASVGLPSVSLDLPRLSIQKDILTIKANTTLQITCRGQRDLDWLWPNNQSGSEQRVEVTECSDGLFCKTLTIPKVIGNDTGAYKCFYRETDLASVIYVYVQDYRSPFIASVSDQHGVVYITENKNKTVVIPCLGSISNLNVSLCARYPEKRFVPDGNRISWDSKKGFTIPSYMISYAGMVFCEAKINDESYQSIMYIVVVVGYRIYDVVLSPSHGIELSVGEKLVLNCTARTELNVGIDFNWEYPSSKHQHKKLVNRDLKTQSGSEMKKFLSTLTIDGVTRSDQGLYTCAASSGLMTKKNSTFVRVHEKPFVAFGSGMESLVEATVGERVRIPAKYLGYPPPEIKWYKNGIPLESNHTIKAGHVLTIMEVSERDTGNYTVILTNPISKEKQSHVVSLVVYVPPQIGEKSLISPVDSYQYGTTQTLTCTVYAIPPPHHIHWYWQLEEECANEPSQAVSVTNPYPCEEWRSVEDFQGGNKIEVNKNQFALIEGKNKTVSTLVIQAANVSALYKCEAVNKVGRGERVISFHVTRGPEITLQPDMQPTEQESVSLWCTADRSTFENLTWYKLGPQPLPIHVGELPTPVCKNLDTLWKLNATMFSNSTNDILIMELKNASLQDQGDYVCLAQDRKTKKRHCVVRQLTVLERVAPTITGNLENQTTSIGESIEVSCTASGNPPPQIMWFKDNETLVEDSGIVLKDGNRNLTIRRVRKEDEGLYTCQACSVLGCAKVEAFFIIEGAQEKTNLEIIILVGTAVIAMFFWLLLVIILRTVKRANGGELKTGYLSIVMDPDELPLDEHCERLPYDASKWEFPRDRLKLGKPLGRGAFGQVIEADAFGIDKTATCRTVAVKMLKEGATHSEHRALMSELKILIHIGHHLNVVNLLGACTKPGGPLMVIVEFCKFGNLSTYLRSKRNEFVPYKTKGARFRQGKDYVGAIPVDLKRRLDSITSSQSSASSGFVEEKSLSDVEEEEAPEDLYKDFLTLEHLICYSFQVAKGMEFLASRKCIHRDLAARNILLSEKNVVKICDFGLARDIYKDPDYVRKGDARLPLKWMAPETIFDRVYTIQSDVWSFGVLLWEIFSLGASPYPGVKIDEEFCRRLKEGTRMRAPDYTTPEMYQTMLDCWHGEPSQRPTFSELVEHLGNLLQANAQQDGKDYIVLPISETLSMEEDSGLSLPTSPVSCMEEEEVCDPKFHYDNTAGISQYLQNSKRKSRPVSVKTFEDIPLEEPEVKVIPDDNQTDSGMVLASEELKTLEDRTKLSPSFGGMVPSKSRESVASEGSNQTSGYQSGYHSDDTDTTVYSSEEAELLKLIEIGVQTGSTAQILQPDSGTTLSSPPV

IC50 [1]: > 50 µM
IC50 [2]: > 50 µM
IC50 [3]: > 50 µM
IC50 [4]: > 50 µM
IC50 (A549 (lung carcinoma)): > 50 µM
IC50 [5]: 26.5 ± 3.65 µM
melting point: 313 to 315 °C
SMILES: CNC(=O)c1cc(Oc2ccc(NC(=O)c3cccc(C(=O)Nc4cc(-n5cnc(C)c5)cc(C(F)(F)F)c4)c3)cc2)ccn1 [Compound 11, N1-(3-(4-methyl-1H-imidazol-1-yl)-5-(trifluoromethyl)phenyl)-N3-(4-((2-(methylcarbamoyl)pyridin-4-yl)oxy)phenyl)isophthalamide]
IC50 [6]: 21.9 ± 0.44 µM
Antiproliferative activity (IC50) over the studied cell cultures [7]: lack of sensitivity of the cancer cells in the studied concentration range

IC50 [1]: 7.71 ± 2.84 µM
IC50 [2]: 32.5 ± 1.5 µM
IC50 [3]: 27.3 ± 0.16 µM
IC50 [4]: 44.1 ± 4.19 µM
IC50 (A549 (lung carcinoma)): > 50 µM
IC50 [5]: > 50 µM
inhibition at 10 µM (EGFR): 21%
inhibition at 10 µM (HER2): 14%
inhibition at 10 µM (HER4): 0%
inhibition at 10 µM [8]: 0%
inhibition at 10 µM (InsR (insulin receptor)): 0%
inhibition at 10 µM (KDR (VEGFR-2)): 26%
inhibition at 10 µM (PDGFRα): 24%
inhibition at 10 µM (PDGFRβ): 23%
inhibition at 10 µM (Aurora A): 0%
inhibition at 10 µM (Aurora B): 7%
melting point: 135 to 138 °C
SMILES: Cc1cn(-c2cc(NC(=O)c3cccc(C(=O)N4CCN(C(=O)c5ccccc5F)CC4)c3)cc(C(F)(F)F)c2)cn1 [Compound 14, 3-(4-(2-Fluorobenzoyl)piperazine-1-carbonyl)-N-(3-(4-methyl-1H-imidazol-1-yl)-5-(trifluoromethyl)phenyl)benzamide]
IC50 [6]: 26.6 ± 2.31 µM
Apoptosis, % (cell cycle analysis) (K562 cells [9]; K562, 1 µM): 14.28%
G1, % (K562 cells [9]; K562, 1 µM): 32.65%
G2/M, % (K562 cells [9]; K562, 1 µM): 46.95%
S, % (K562 cells [9]; K562, 1 µM): 20.41%
Apoptosis, % (cell cycle analysis) (K562 cells [9]; K562, 5 µM): 25.10%
G1, % (K562 cells [9]; K562, 5 µM): 27.58%
G2/M, % (K562 cells [9]; K562, 5 µM): 55.16%
S, % (K562 cells [9]; K562, 5 µM): 17.25%
Apoptosis, % (cell cycle analysis) (K562 cells [9]; K562, 10 µM): 38.02%
G1, % (K562 cells [9]; K562, 10 µM): 31.21%
G2/M, % (K562 cells [9]; K562, 10 µM): 51.08%
S, % (K562 cells [9]; K562, 10 µM): 17.71%
normal live cells (living cells) (K562 cells [10]; K562, 1 µM): 83.95%
normal live cells (living cells) (K562 cells [10]; K562, 5 µM): 65.68%
normal live cells (living cells) (K562 cells [10]; K562, 10 µM): 56.83%
ROS Level, % of Control (K562 cell line; K562, 5 µM): 92.84 % of Control
ROS Level, % of Control (K562 cell line; K562, 10 µM): 76.96 % of Control
ROS Level, % of Control (K562 cell line; K562, 20 µM): 71.90 % of Control

IC50 [1]: < 0.1 µM
IC50 [2]: 22.7 ± 4.76 µM
IC50 [3]: 4.2 ± 0.14 µM
IC50 [4]: 4.81 ± 0.21 µM
IC50 (A549 (lung carcinoma)): > 50 µM
IC50 [5]: 2.76 ± 0.06 µM
IC50 ([7]; read-out: Antiproliferative activity (IC50) over the studied cell cultures): 2 to 27 µM
SMILES: Cc1cn(-c2cc(NC(=O)c3ccc(C)c(Nc4nccc(-c5cccnc5)n4)c3)cc(C(F)(F)F)c2)cn1 [Nilotinib, reference compound]
IC50 [6]: 19.32 ± 0.09 µM
